Consider 17 compounds from patent US9856247B2, “4-methyl-dihydropyrimidines for the treatment and prophylaxis of Hepatitis B virus infection” (Hoffmann-La Roche Inc., priority 2012, dated 2018).

For one series, the system named is HBV DNA. The experiment in a line: Anti-HBV activity in HepDE19 cells (HBV DNA dot-blot). Type of series: cell-based, Hepatitis B virus (HBV). The note with it: Hepatitis B virus, 120 h; HepDE19 cells, five days after compound treatment, concentration that inhibited HBV DNA by 50%; read-out: HepDe19 EC50. From the text: Cells and culture conditions: HepDE19 (Haitao Guo et al, Journal of Virology, 81, November 2007, 12472-12484; Richeng Mao et al, Journal of Virology, 85, January 2011, 1048-1057) cells were derived from HepG2 (ATCC, American Type Culture Collection) cells through transfection with pTet-off plasmid (Clontech) that expresses the Tet-responsive transcriptional activator and pTREHBVDE plasmid in which HBV pgRNA expression is controlled by a CMV early promoter with a tetracycline-responsive element. The transfected cells were selected with G418 (also known as Genticin, purchased from Invitrogen). […] These cells were maintained in Dulbecco's modified Eagle's medium (DMEM)-F12 medium (Invitrogen) supplemented with 10% fetal bovine serum, 100 U/ml penicillin, and 100 μg/ml streptomycin, 0.5 mg/ml of G418 and 1 μg/ml tetracycline.
Anti-HBV activity and cytotoxicity: HepDE19 cells were seeded into 96-well plates (3×10^4 cells/well) with tetracycline-free medium and incubated overnight at 37° C. The test or control compounds were serially half-log diluted with medium and added into the plates (the final concentration of DMSO kept at 0.5% in each well). Five days after compound treatment, cells were washed with PBS and lysed with 50 mM Tris-1 mM EDTA-0.2% CA-630 (pH 8.0) at 37° C. for 20 min. After centrifugation to remove nuclei and other debris, the supernatant was transferred into a new plate and incubated with 2M NaOH/20×SSC (3M NaCl, 0.3M Sodium citrate, pH7.0) at rt for 30 min. Then the samples were transferred to nylon membrane and neutralized with 1M Tris (pH7.4)/2M NaCl. The presence of HBV DNA was detected by dot-blot with DIG-labeled HBV specific DNA probe and quantified by dot density. The compound concentrations that inhibited HBV DNA by 50% (EC50) were determined (See Table 1).

The next series can be described thus: in vitro. The following applies: human. The procedure: The transfected cells were selected with G418 (also known as Genticin, purchased from Invitrogen). […] These cells were maintained in Dulbecco's modified Eagle's medium (DMEM)-F12 medium (Invitrogen) supplemented with 10% fetal bovine serum, 100 U/ml penicillin, and 100 μg/ml streptomycin, 0.5 mg/ml of G418 and 1 μg/ml tetracycline.
To determine if the anti-HBV effect of compound is due to cytotoxicity, HepDE 19 cells (5×10^3 cells/well) were seeded into 96-well plates and compounds were treated as described above. […] Four hours after incubation at 37° C., the absorbance at wavelengths of 450 nm and 630 nm (OD450 and OD630) was recorded by a plate reader.

Where only a bound is given, the exact number is not on record here.

As usually defined, the EC50 is the concentration giving half of the maximal effect. Regarding `CNC(=O)[C@@H]1CC(F)(F)CN1CC1=C(C(=O)OC)C(C)(c2ccc(F)cc2)N=C(c2nccs2)N1` (stereo partly drawn) [Example 50, 6-((S)-4,4-difluoro-2-methylcarbamoyl-pyrrolidin-1-ylmethyl)-4-(4-fluoro-phenyl)-4-methyl-2-thiazol-2-yl-1,4-dihydro-pyrimidine-5-carboxylic acid methyl ester], the EC50 in the series with HBV DNA amounted to 606 nM. Moreover, the CC50 at 5 days in the series “in vitro” is at least 100 µM.
Taken in the same sequence, the figures for `COC(=O)C1=C(CN2CC(F)(F)C[C@H]2C(=O)O)NC(c2nccs2)=N[C@@]1(C)c1ccc(F)c(F)c1` [Example 14, (S)-6-((S)-2-Carboxy-4,4-difluoro-pyrrolidin-1-ylmethyl)-4-(3,4-difluoro-phenyl)-4-methyl-2-thiazol-2-yl-1,4-dihydro-pyrimidine-5-carboxylic acid methyl ester] were 200 nM and above 100 µM.
Taken in the same sequence, the figures for `COC(=O)C1=C(CN2CC(F)(F)C[C@H]2C(=O)O)NC(c2ncc(C)s2)=N[C@@]1(C)c1ccc(F)cc1` [Example 37, (S)-6-((S)-2-carboxy-4,4-difluoro-pyrrolidin-1-ylmethyl)-4-(4-fluoro-phenyl)-4-methyl-2-(5-methyl-thiazol-2-yl)-1,4-dihydro-pyrimidine-5-carboxylic acid methyl ester] were 470 nM and 85 µM.
Consider `COC(=O)C1=C(CN2CC(F)(F)C[C@H]2c2nc(C)no2)NC(c2nccs2)=N[C@@]1(C)c1ccc(F)cc1` [Example 59, (S)-6-[(S)-4,4-difluoro-2-(3-methyl-[1,2,4]oxadiazol-5-yl)-pyrrolidin-1-ylmethyl]-4-(4-fluoro-phenyl)-4-methyl-2-thiazol-2-yl-1,4-dihydro-pyrimidine-5-carboxylic acid methyl ester], for which, in the series on HBV DNA, the EC50 worked out at 1240 nM. Moreover, in “in vitro”, the CC50 at 5 days worked out at 65.3 µM.
Taken in the same sequence, the figures for `COC(=O)C1=C(CN2CC(F)(F)C[C@H]2C(=O)O)NC(c2ccon2)=NC1(C)c1ccc(F)cc1` (stereo partly drawn) [Example 35, 6-((S)-2-carboxy-4,4-difluoro-pyrrolidin-1-ylmethyl)-4-(4-fluoro-phenyl)-2-isoxazol-3-yl-4-methyl-1,4-dihydro-pyrimidine-5-carboxylic acid methyl ester] were 15000 nM and at least 100 µM.
On to `CC1(c2ccc(F)c(F)c2)N=C(c2nccs2)NC(CN2CCOC[C@H]2C(=O)O)=C1C#N` (stereo partly drawn) [Example 22, (S)-4-[5-Cyano-6-(3,4-difluoro-phenyl)-6-methyl-2-thiazol-2-yl-3,6-dihydro-pyrimidin-4-ylmethyl]-morpholine-3-carboxylic acid], for which the EC50 with HBV DNA was 20400 nM. In the series “in vitro”, this compound registered a CC50 at 5 days above 100 µM.
In the case of `COC(=O)C1=C(CN2CC(F)(F)C[C@H]2CO)NC(c2nccs2)=N[C@@]1(C)c1ccc(F)cc1` [Example 55, (S)-6-((S)-4,4-difluoro-2-hydroxymethyl-pyrrolidin-1-ylmethyl)-4-(4-fluoro-phenyl)-4-methyl-2-thiazol-2-yl-1,4-dihydro-pyrimidine-5-carboxylic acid methyl ester], the EC50 in the series on HBV DNA is 67 nM. In “in vitro”, this compound registered a CC50 at 5 days of at least 100 µM.
For the compound `COC(=O)C1=C(CN2CC(F)(F)C[C@@]2(C)C(=O)O)NC(c2nccs2)=N[C@]1(C)c1ccc(F)cc1` [Example 36, (R)-6-((S)-2-carboxy-4,4-difluoro-2-methyl-pyrrolidin-1-ylmethyl)-4-(4-fluoro-phenyl)-4-methyl-2-thiazol-2-yl-1,4-dihydro-pyrimidine-5-carboxylic acid methyl ester], in the series on HBV DNA, the EC50 was 7490 nM. Further, the CC50 at 5 days in “in vitro” is at least 100 µM.
Take `COC(=O)C1=C(CN2CCOC[C@H]2CO)NC(c2nccs2)=NC1(C)c1ccc(F)cc1` (stereo partly drawn) [Example 53, 4-(4-fluoro-phenyl)-6-((R)-3-hydroxymethyl-morpholin-4-ylmethyl)-4-methyl-2-thiazol-2-yl-1,4-dihydro-pyrimidine-5-carboxylic acid methyl ester]: the EC50 with HBV DNA amounted to 1750 nM. The same compound returned a CC50 at 5 days in the series “in vitro” of at least 100 µM.
For `COC(=O)C1=C(CN2CC(F)(F)C[C@H]2C(=O)O)NC(c2nccn2C)=N[C@@]1(C)c1ccc(F)cc1` [Example 27, (S)-6-((S)-2-carboxy-4,4-difluoro-pyrrolidin-1-ylmethyl)-4-(4-fluoro-phenyl)-4-methyl-2-(1-methyl-1H-imidazol-2-yl)-1,4-dihydro-pyrimidine-5-carboxylic acid methyl ester], the EC50 in the series on HBV DNA was found to be 2720 nM. The compound also came in with a CC50 at 5 days in the series “in vitro” of 55.8 µM.
As to `COC(=O)C1=C(CN2CC(F)(F)C[C@H]2C(=O)OC)NC(c2ccc(F)cn2)=NC1(C)c1ccc(F)cc1` (stereo in doubt) [Example 17, 6-(4,4-Difluoro-2-methoxycarbonyl-pyrrolidin-1-ylmethyl)-4-(4-fluoro-phenyl)-2-(5-fluoro-pyridin-2-yl)-4-methyl-1,4-dihydro-pyrimidine-5-carboxylic acid methyl ester], the EC50 in the series with HBV DNA was determined as 590 nM. This compound also gave a CC50 at 5 days in “in vitro” of 90 µM.
Taken in the same sequence, the figures for `COC(=O)C1=C(CN2CC(F)(F)C[C@H]2C(=O)O)NC(c2nc(C)cs2)=N[C@]1(C)c1ccc(F)cc1` [Example 31, (R)-6-((S)-2-carboxy-4,4-difluoro-pyrrolidin-1-ylmethyl)-4-(4-fluoro-phenyl)-4-methyl-2-(4-methyl-thiazol-2-yl)-1,4-dihydro-pyrimidine-5-carboxylic acid methyl ester] were 1670 nM and at least 100 µM.
Taken in the same sequence, the figures for `COC(=O)C1=C(CN2C[C@@H](F)C[C@H]2C(=O)O)NC(c2nccs2)=N[C@@]1(C)c1ccc(F)cc1` [Example 39, (S)-6-((2S,4S)-2-carboxy-4-fluoro-pyrrolidin-1-ylmethyl)-4-(4-fluoro-phenyl)-4-methyl-2-thiazol-2-yl-1,4-dihydro-pyrimidine-5-carboxylic acid methyl ester] were 10500 nM and at least 100 µM.
Consider `CCOC(=O)C1=C(CN2CC(F)(F)C[C@H]2C(=O)O)NC(c2nccs2)=N[C@@]1(C)c1ccc(F)c(F)c1` [Example 24, (S)-6-((S)-2-carboxy-4,4-difluoro-pyrrolidin-1-ylmethyl)-4-(3,4-difluoro-phenyl)-4-methyl-2-thiazol-2-yl-1,4-dihydro-pyrimidine-5-carboxylic acid ethyl ester], for which the EC50 in the series with HBV DNA came to 800 nM. This compound displayed a CC50 at 5 days in the series “in vitro” of at least 100 µM.
Regarding `COC(=O)C1=C(CN2CCOC[C@H]2C(=O)OC)NC(c2nccs2)=NC1(C)c1ccc(F)cc1` (stereo partly drawn) [Example 5, 4-[6-(4-Fluoro-phenyl)-5-methoxycarbonyl-6-methyl-2-thiazol-2-yl-3,6-dihydro-pyrimidin-4-ylmethyl]-morpholine-(S)-3-carboxylic acid methyl ester], in the series on HBV DNA, the concentration for a half-maximal effect (EC50) was found to be 700 nM. In the series “in vitro”, the CC50 at 5 days was above 100 µM.
Consider `COC(=O)C1=C(CN2CCOC[C@H]2C(=O)O)NC(c2ccc(F)cn2)=NC1(C)c1ccc(F)cc1` (stereo partly drawn) [Example 10, 4-[6-(4-Fluoro-phenyl)-2-(5-fluoro-pyridin-2-yl)-5-methoxycarbonyl-6-methyl-3,6-dihydro-pyrimidin-4-ylmethyl]-morpholine-(S)-3-carboxylic acid], for which the EC50 in the series with HBV DNA worked out at 7040 nM. Moreover, in “in vitro”, the CC50 at 5 days is above 100 µM.
For the compound `COC(=O)C1=C(CN2CC(F)(F)C[C@H]2C(N)=O)NC(c2nccs2)=N[C@@]1(C)c1ccc(F)cc1` [Example 48, (S)-6-((S)-2-carbamoyl-4,4-difluoro-pyrrolidin-1-ylmethyl)-4-(4-fluoro-phenyl)-4-methyl-2-thiazol-2-yl-1,4-dihydro-pyrimidine-5-carboxylic acid methyl ester], the EC50 in the series on HBV DNA amounted to 80 nM. Moreover, the CC50 at 5 days in the series “in vitro” was at least 100 µM.
